These results are taken from US20260248947A1, “Methods of Treating Cancer Using Anti-HER2 Antibody-Drug Conjugates and HER2 Kinase Inhibitors” (Seagen Inc., priority 2023, published 2026).

Data set [1] has as its system GA3102 (IHC 3+) gastric cancer PDX. The experiment in a line: Tumor volume / normalized AUC in gastric cancer PDX model. The format is in vivo, Mice. The conditions noted are these: GA3102 (FIGS. 12K, 12L); tucatinib 50 mg/kg oral twice daily, DV 2 mg/kg intravenous single dose. The text has this: (§1) FIGS. […] show the effects of combining DV and tucatinib vs. DV as a single agent in gastric cancer patient-derived xenograft (PDX) models with varying HER2 expression levels: GA13745 (IHC 1+; FIGS. 12A, 12B), GA6821 (IHC 1+; FIGS. 12C, 12D), CTG-0148 (IHC 1+; FIGS. 12E, 12F), CTG-3036 (IHC 2+; FIGS. 12G, 12H), CTG-3033 (IHC 3+; FIGS. 12I, 12J), and GA3102 (IHC 3+; FIGS. 12K, 12L). Treatment with T-DXd, a HER2-directed ADC, was also included in the study. Tumor volume data shown as mean±SEM. For each model, tumor growth was evaluated using a normalized area under the curve (AUC) metric (see, Guo, S. et al. (2019) BMC Cancer 19, 718) (FIGS. 12A, 12C, 12E, 12G, 12I, 12K). AUC was calculated for each model for the duration of the experiment, then compared by one-way ANOVA followed by Tukey's post-hoc test. The box-and-whisker plots represent the median and range for each treatment group (FIGS. 12B, 12D, 12F, 12H, 12J, 12L). […]
(§2) DV and tucatinib were tested as monotherapies and in combination in PDX models with varying HER2 expression levels. […] Mice (n=10/group) were treated with tucatinib (50 mg/kg oral, twice daily), DV (2 mg/kg, intravenous, single dose), a combination of tucatinib and DV, or T-DXd (2 mg/kg, intravenous, single dose), and tumor volume was measured over time.

The subject of data set [2] is GA6821 (IHC 1+) gastric cancer PDX. The description is as above. The format is in vivo, Mice. The conditions noted are these: GA6821 (FIGS. 12C, 12D); tucatinib 50 mg/kg oral twice daily, DV 2 mg/kg intravenous single dose.
Text: as §1, §2

Data set [3] has as its system panel of breast cancer cell lines spanning a range of HER2 expression. The experiment in a line: 96-hour CellTiterGlo cytotoxicity assay of DV, T-DM1 and T-DXd. The format is cell-based. On the procedure: The following cell lines were cultured in the vendor-recommended conditions: breast cancer cell lines SK-BR-3, BT-474, UACC-893, HCC-202, JIMT-1, and BT-483. Cytotoxicity assays were performed using CellTiter-Glo (CTG) Luminescent Cell Viability assay (Promega Corporation) as per the manufacturer's protocol. Cells were seeded in 96-well plates and incubated overnight as previously described (1). […] Cells were then incubated at 37° C. in 5% CO2, and cell viability was measured at 96 hours after dosing.
Internalization of anti-HER2 ADCs DV, T-DM1, and T-DXd (two HER2-targeting ADCs with trastuzumab as a backbone) was also tested in breast cancer cell lines SK-BR-3, HCC-202, and BT-483.
A general note: Cellular ATP, detected with luciferase, serves as a proxy for viable cell number.

Data set [4] relates to gastric cancer PDX models. The experiment in a line: Tumor volume in gastric cancer PDX models with variable HER2 expression. The format is in vivo, Mice. The conditions noted are these: in a majority of the six PDX models; DV 2 mg/kg intravenous single dose.
Text: as §1, §2

As for disitamab vedotin [DV], the “anti-tumor activity compared to untreated control (normalized AUC tumor growth metric)” value in data set [1] and in data set [2] was “significant anti-tumor activity” throughout. Moreover, the “IC50 compared with the IC50 for T-DM1 and T-DXd” value in data set [3] (for each cell line of the panel) is “lower”. For the same substance, the “in vitro cytotoxic activity against the panel of breast cancer cell lines” value in data set [3] (variable HER2 expression, including HER2-low range, 0.01-10,000 ng/mL) is listed as “in vitro cytotoxic activity”. The “anti-tumor activity of DV monotherapy” value in data set [4] is listed as “anti-tumor activity”.
